Source: PubChem BioAssay (NCI)
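Compound exposure: 48 hours, 5 concentrations, 96-well plates. GI50: concentration for 50% inhibition of growth. TGI marks complete inhibition of growth.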

Experiments:
Test in all cases: DTP human tumour cell line panel, 48 h
UACC-62 melanoma = tested on: UACC-62 melanoma
SR leukemia = tested on: SR leukemia
SN12C renal = tested on: SN12C renal
NCI-H23 lung = tested on: NCI-H23 lung
HCC-2998 colon = tested on: HCC-2998 colon
MOLT-4 leukemia = tested on: MOLT-4 leukemia
NCI-H226 lung = tested on: NCI-H226 lung
RXF 393 renal = tested on: RXF 393 renal
786-0 renal = tested on: 786-0 renal
SNB-75 CNS = tested on: SNB-75 CNS
MALME-3M melanoma = tested on: MALME-3M melanoma
SF-295 CNS = tested on: SF-295 CNS
MDA-MB-231 breast = tested on: MDA-MB-231 breast
HS 578T breast = tested on: HS 578T breast
M14 melanoma = tested on: M14 melanoma
A549 NSCLC = tested on: A549 NSCLC
NCI/ADR-RES ovarian = tested on: NCI/ADR-RES ovarian
HOP-62 NSCLC = tested on: HOP-62 NSCLC
MCF7 breast = tested on: MCF7 breast
SK-MEL-5 melanoma = tested on: SK-MEL-5 melanoma
CAKI-1 renal = tested on: CAKI-1 renal
OVCAR-5 ovarian = tested on: OVCAR-5 ovarian
SW-620 colon = tested on: SW-620 colon
ACHN renal = tested on: ACHN renal
COLO 205 colon = tested on: COLO 205 colon
KM12 colon = tested on: KM12 colon
NCI-H460 lung = tested on: NCI-H460 lung
T-47D breast = tested on: T-47D breast
SNB-19 CNS = tested on: SNB-19 CNS
SF-539 CNS = tested on: SF-539 CNS
LOX IMVI melanoma = tested on: LOX IMVI melanoma
HCT-116 colon = tested on: HCT-116 colon
BT-549 breast = tested on: BT-549 breast
HOP-92 NSCLC = tested on: HOP-92 NSCLC
SK-MEL-28 melanoma = tested on: SK-MEL-28 melanoma
OVCAR-8 ovarian = tested on: OVCAR-8 ovarian
UO-31 renal = tested on: UO-31 renal
K-562 leukemia = tested on: K-562 leukemia
TK-10 renal = tested on: TK-10 renal
OVCAR-3 ovarian = tested on: OVCAR-3 ovarian
MDA-MB-435 = tested on: MDA-MB-435
CCRF-CEM leukemia = tested on: CCRF-CEM leukemia
PC-3 prostate = tested on: PC-3 prostate
IGROV1 ovarian = tested on: IGROV1 ovarian
HL-60(TB) leukemia = tested on: HL-60(TB) leukemia
SK-OV-3 ovarian = tested on: SK-OV-3 ovarian
RPMI-8226 leukemia = tested on: RPMI-8226 leukemia
SF-268 CNS = tested on: SF-268 CNS
HCT-15 colon = tested on: HCT-15 colon
A498 renal = tested on: A498 renal
SK-MEL-2 melanoma = tested on: SK-MEL-2 melanoma
UACC-257 melanoma = tested on: UACC-257 melanoma
DU-145 prostate = tested on: DU-145 prostate
NCI-H522 lung = tested on: NCI-H522 lung

SMILES: Cc1nc2ccc(Nc3nc(Cl)nc(Nc4ccc(F)cc4)n3)cc2n1Cc1ccccc1
- GI50 (UACC-62 melanoma): 3.06 µM
- TGI (UACC-62 melanoma): 12.9 µM
- GI50 (SR leukemia): 3.79 µM
- TGI (SR leukemia): 39.5 µM
- GI50 (SN12C renal): 5.22 µM
- TGI (SN12C renal): 38.3 µM
- GI50 (NCI-H23 lung): 7.16 µM
- TGI (NCI-H23 lung): 25.2 µM
- GI50 (HCC-2998 colon): 2.6 µM
- TGI (HCC-2998 colon): 5.96 µM
- GI50 (MOLT-4 leukemia): 3.92 µM
- TGI (MOLT-4 leukemia): 18.1 µM
- GI50 (NCI-H226 lung): 4.14 µM
- TGI (NCI-H226 lung): 21.6 µM
- GI50 (RXF 393 renal): 4.45 µM
- TGI (RXF 393 renal): 21.5 µM
- GI50 (786-0 renal): 5.18 µM
- TGI (786-0 renal): 37 µM
- GI50 (SNB-75 CNS): 10.2 µM
- TGI (SNB-75 CNS): 26.2 µM
- GI50 (MALME-3M melanoma): 11.4 µM
- TGI (MALME-3M melanoma): 24.6 µM
- GI50 (SF-295 CNS): 1.9 µM
- TGI (SF-295 CNS): 4.53 µM
- GI50 (MDA-MB-231 breast): 3.99 µM
- TGI (MDA-MB-231 breast): 20.4 µM
- GI50 (HS 578T breast): 10.9 µM
- TGI (HS 578T breast): > 100 µM
- GI50 (M14 melanoma): 5.54 µM
- TGI (M14 melanoma): 22 µM
- GI50 (A549 NSCLC): 11.3 µM
- TGI (A549 NSCLC): 30.9 µM
- GI50 (NCI/ADR-RES ovarian): 4.11 µM
- TGI (NCI/ADR-RES ovarian): 18.5 µM
- GI50 (HOP-62 NSCLC): 10.7 µM
- TGI (HOP-62 NSCLC): 30.4 µM
- GI50 (MCF7 breast): 2.71 µM
- TGI (MCF7 breast): 12.4 µM
- GI50 (SK-MEL-5 melanoma): 4.19 µM
- TGI (SK-MEL-5 melanoma): 15.1 µM
- GI50 (CAKI-1 renal): 7.94 µM
- TGI (CAKI-1 renal): 35.2 µM
- GI50 (OVCAR-5 ovarian): 14.7 µM
- TGI (OVCAR-5 ovarian): 44.1 µM
- GI50 (SW-620 colon): 4.95 µM
- TGI (SW-620 colon): 35 µM
- GI50 (ACHN renal): 3 µM
- TGI (ACHN renal): 10.4 µM
- GI50 (COLO 205 colon): 11.2 µM
- TGI (COLO 205 colon): 26.5 µM
- GI50 (KM12 colon): 4.25 µM
- TGI (KM12 colon): 17.6 µM
- GI50 (NCI-H460 lung): 4.23 µM
- TGI (NCI-H460 lung): 17.8 µM
- GI50 (T-47D breast): 1.81 µM
- TGI (T-47D breast): 4.58 µM
- GI50 (SNB-19 CNS): 4.55 µM
- TGI (SNB-19 CNS): 26.9 µM
- GI50 (SF-539 CNS): 4.53 µM
- TGI (SF-539 CNS): 17.4 µM
- GI50 (LOX IMVI melanoma): 3.59 µM
- TGI (LOX IMVI melanoma): 14.1 µM
- GI50 (HCT-116 colon): 3.56 µM
- TGI (HCT-116 colon): 13.6 µM
- GI50 (BT-549 breast): 4 µM
- TGI (BT-549 breast): 18.8 µM
- GI50 (HOP-92 NSCLC): 2.3 µM
- TGI (HOP-92 NSCLC): 9.23 µM
- GI50 (SK-MEL-28 melanoma): 3.15 µM
- TGI (SK-MEL-28 melanoma): 10.5 µM
- GI50 (OVCAR-8 ovarian): 3.25 µM
- TGI (OVCAR-8 ovarian): 14.1 µM
- GI50 (UO-31 renal): 2.85 µM
- TGI (UO-31 renal): 12.2 µM
- GI50 (K-562 leukemia): 3.43 µM
- TGI (K-562 leukemia): > 100 µM
- GI50 (TK-10 renal): 18.1 µM
- TGI (TK-10 renal): 44.4 µM
- GI50 (OVCAR-3 ovarian): 4.06 µM
- TGI (OVCAR-3 ovarian): 15 µM
- GI50 (MDA-MB-435): 6.4 µM
- TGI (MDA-MB-435): 23.1 µM
- GI50 (CCRF-CEM leukemia): 3.85 µM
- TGI (CCRF-CEM leukemia): > 100 µM
- GI50 (PC-3 prostate): 7.11 µM
- TGI (PC-3 prostate): 32.9 µM
- GI50 (IGROV1 ovarian): 4.4 µM
- TGI (IGROV1 ovarian): 20.8 µM
- GI50 (HL-60(TB) leukemia): 3.02 µM
- TGI (HL-60(TB) leukemia): 7.6 µM
- GI50 (SK-OV-3 ovarian): 18.1 µM
- TGI (SK-OV-3 ovarian): 66.8 µM
- GI50 (RPMI-8226 leukemia): 2.05 µM
- TGI (RPMI-8226 leukemia): 5.09 µM
- GI50 (SF-268 CNS): 10.8 µM
- TGI (SF-268 CNS): 46.8 µM
- GI50 (HCT-15 colon): 2.92 µM
- TGI (HCT-15 colon): 10.4 µM
- GI50 (A498 renal): 13.2 µM
- TGI (A498 renal): 41 µM
- GI50 (SK-MEL-2 melanoma): 4.15 µM
- TGI (SK-MEL-2 melanoma): 15 µM
- GI50 (UACC-257 melanoma): 11.8 µM
- TGI (UACC-257 melanoma): 28.9 µM
- GI50 (DU-145 prostate): 9.44 µM
- TGI (DU-145 prostate): 22.6 µM
- GI50 (NCI-H522 lung): 2.51 µM
- TGI (NCI-H522 lung): 6.85 µM
